Source: ChEMBL document CHEMBL1143680, “Alboatisins A-C, ent-atisene diterpenoids from Isodon albopilosus” (J Nat Prod, 2007)

What was measured:
Type in all cases: functional, cell-based
A549 = assay: Cytotoxicity against human A549 cells after 72 hrs by SRB assay; settings: A549, 72 h
HT-29 = assay: Cytotoxicity against human HT29 cells after 72 hrs by SRB assay; settings: HT-29, 72 h
K562 = assay: Cytotoxicity against human K562 cells after 72 hrs by SRB assay; settings: K562, 72 h

What does the source list for C=C1C(=O)[C@]23C[C@@H](O)[C@H]1C[C@H]2[C@]1(C)CCC[C@](C)(CO)[C@H]1C[C@H]3O [ALBOATISIN C]?
IC50 (A549): 12.5 µM; IC50 (HT-29): 20.6 µM; IC50 (K562): 28 µM

Which results are given for C=C1C(=O)[C@@]23[C@H](O)C[C@@H]4[C@@](C)(CO)CCC[C@@]4(C)[C@@H]2C[C@@H]1[C@H](O)[C@H]3O [ALBOATISINS A]?
IC50 (A549): 10.5 µM; IC50 (HT-29): 15.6 µM; IC50 (K562): 24.6 µM

Which IC50 (A549) does the source give for C=C1C(=O)[C@@]23[C@H](O)C[C@H]4[C@@](C)(CCC[C@]4(C)C=O)[C@@H]2C[C@@H]1[C@H](O)[C@H]3O [ALBOATISINS B] here?
The IC50 was 8.3 µM.

What about the IC50 (HT-29) of the same compound?
The IC50 was 7.9 µM.

And the IC50 (K562)?
Its IC50 is 13.6 µM.
